Data: patent US11753407B2, “Compounds for treating spinal muscular atrophy” (PTC Therapeutics, Inc., priority 2012, dated 2023)

Columns and labels:
[1] = system: SMN2 minigene mRNA (SMN2-A minigene) in HEK293H cells; assay: SMN2 minigene mRNA splicing RT-qPCR assay in cultured cells; type: cell-based, human; conditions: Homo sapiens, HEK293-H; concentration increasing full length SMN2 mRNA 1.5-fold relative to vehicle-treated cells; HEK293H cells with SMN2-A minigene, 24 hours, 7-point concentration data; read-out: EC1.5x for production of full length SMN2 mRNA
Method in brief: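 EC1.5× values derive from a 24 h treatment of SMN2-A minigene HEK293H cells and GAPDH-normalized RT-qPCR of exon 7-included minigene mRNA relative to vehicle-treated cells.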

[2] = system: Smn protein in SMA patient fibroblast cells (GM03813); assay: Smn protein assay in cultured cells (SMN HTRF); type: cell-based, human; conditions: SMA patient fibroblast cells, 48 hours; for EC1.5x for Smn protein expression: 7-point concentration curve, SMN HTRF, concentration producing 1.5 times Smn protein vs DMSO vehicle control; for maximum fold (Fold) increase of Smn protein: 7-point concentration data, fold relative to vehicle control
Method in brief: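 Cells were cultured 72 h, seeded at 5,000/well and dosed with seven concentrations (3.16-fold apart) for 48 h. HTRF on lysates, read at 665 and 620 nm, gave blank-corrected ΔF values relative to DMSO. Potency is reported as EC1.5×, efficacy as maximal fold Smn increase.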

With `Cc1cn2cc(-c3cc(=O)n4cc(N5CCN(CCO)[C@@H](C)C5)ccc4n3)cc(Cl)c2n1` [Compound 537, 2-(8-chloro-2-methylimidazo[1,2-a]pyridin-6-yl)-7-[(3S)-4-(2-hydroxyethyl)-3-methylpiperazin-1-yl]-4H-pyrido[1,2-a]pyrimidin-4-one] the EC (1.5-fold increase) [1] was under 0.1 µM, the “EC1.5x for Smn protein expression” value [2] was “**** (an EC1.5x≤0.3 μM is indicated by four stars (****))” and the “maximum fold (Fold) increase of Smn protein” value (“maximum fold (Fold) increase” below) [2] was “**** (a fold increase between >1.5 and ≤1.65 is indicated by four stars (****))”. For the same compound, the melting point was 228 to 234 °C.
In the case of `COCCN1CCN(c2ccc3nc(-c4cc(F)c5nc(C)cn5c4)cc(=O)n3c2)C[C@@H]1C` [Compound 538, 2-(8-fluoro-2-methylimidazo[1,2-a]pyridin-6-yl)-7-[(3S)-4-(2-methoxyethyl)-3-methylpiperazin-1-yl]-4H-pyrido[1,2-a]pyrimidin-4-one], the EC (1.5-fold increase) [1] is reported as under 0.1 µM, the “EC1.5x for Smn protein expression” value [2] is reported as “*** (an EC1.5× between >0.3 μM and ≤1 μM is indicated by three stars (***))” and the “maximum fold (Fold) increase” value [2] is reported as “**** (a fold increase between >1.5 and ≤1.65 is indicated by four stars (****))”. The melting point was 215 to 219 °C.
With `Cc1cn2cc(-c3cc(=O)n4cc(N5CCN(CCO)[C@@H](C)C5)ccc4n3)cc(F)c2n1` [Compound 539, 2-(8-fluoro-2-methylimidazo[1,2-a]pyridin-6-yl)-7-[(3S)-4-(2-hydroxyethyl)-3-methylpiperazin-1-yl]-4H-pyrido[1,2-a]pyrimidin-4-one] the EC (1.5-fold increase) [1] was under 0.1 µM, the “EC1.5x for Smn protein expression” value [2] was “**** (an EC1.5x≤0.3 μM is indicated by four stars (****))” and the “maximum fold (Fold) increase” value [2] was “**** (a fold increase between >1.5 and ≤1.65 is indicated by four stars (****))”. For the same compound, the melting point was 270 to 274 °C.
With `Cc1cn2cc(-c3cc(=O)n4cc(N5CCN(CCOCCO)[C@@H](C)C5)ccc4n3)cc(F)c2n1` [Compound 540, 2-(8-fluoro-2-methylimidazo[1,2-a]pyridin-6-yl)-7-{(3S)-4-[2-(2-hydroxyethoxy)ethyl]-3-methylpiperazin-1-yl}-4H-pyrido[1,2-a]pyrimidin-4-one] the EC (1.5-fold increase) [1] was under 0.1 µM, the “maximum fold (Fold) increase” value [2] was “*** (a fold increase between >1.35 and ≤1.5 is indicated by three stars (***))” and the melting point was 175 to 181 °C.
With `Cc1cn2cc(-c3cc(=O)n4cc(N5CCN(C(C)C)[C@@H](C)C5)ccc4n3)cc(F)c2n1` [Compound 541, 2-(8-fluoro-2-methylimidazo[1,2-a]pyridin-6-yl)-7-[(3S)-3-methyl-4-(propan-2-yl)piperazin-1-yl]-4H-pyrido[1,2-a]pyrimidin-4-one] the EC (1.5-fold increase) [1] was 0.1 to 0.3 µM, the “EC1.5x for Smn protein expression” value [2] was “*** (an EC1.5× between >0.3 μM and ≤1 μM is indicated by three stars (***))” and the “maximum fold (Fold) increase” value [2] was “***** (a fold increase >1.65 is indicated by five stars (*****))”. It also gave a melting point of 191 to 194 °C.
In the case of `Cc1cn2cc(-c3cc(=O)n4cc(N5CCN(C6CC6)[C@@H](C)C5)ccc4n3)cc(F)c2n1` [Compound 542, 7-[(3S)-4-cyclopropyl-3-methylpiperazin-1-yl]-2-(8-fluoro-2-methylimidazo[1,2-a]pyridin-6-yl)-4H-pyrido[1,2-a]pyrimidin-4-one], the EC (1.5-fold increase) [1] is reported as under 0.1 µM, the “EC1.5x for Smn protein expression” value [2] is reported as “*** (an EC1.5× between >0.3 μM and ≤1 μM is indicated by three stars (***))” and the “maximum fold (Fold) increase” value [2] is reported as “***** (a fold increase >1.65 is indicated by five stars (*****))”. For the same compound, the melting point was 242 to 246 °C.
For `Cc1cn2cc(-c3cc(=O)n4cc(N5CCN(C6CCC6)[C@@H](C)C5)ccc4n3)cc(F)c2n1` [Compound 543, 7-[(3S)-4-cyclobutyl-3-methylpiperazin-1-yl]-2-(8-fluoro-2-methylimidazo[1,2-a]pyridin-6-yl)-4H-pyrido[1,2-a]pyrimidin-4-one], the EC (1.5-fold increase) [1] was under 0.1 µM, the “EC1.5x for Smn protein expression” value [2] was “**** (an EC1.5x≤0.3 μM is indicated by four stars (****))” and the “maximum fold (Fold) increase” value [2] was “***** (a fold increase >1.65 is indicated by five stars (*****))”. It also gave a melting point of 264 to 267 °C.
For `C[C@@H]1CN(c2ccc3nc(-c4ccc5c(cnn5C)c4)cc(=O)n3c2)CCN1` [Compound 545, 2-(1-methyl-1H-indazol-5-yl)-7-[(3R)-3-methylpiperazin-1-yl]-4H-pyrido[1,2-a]pyrimidin-4-one], the EC (1.5-fold increase) [1] was 0.1 to 0.3 µM, the “EC1.5x for Smn protein expression” value [2] was “**** (an EC1.5x≤0.3 μM is indicated by four stars (****))” and the “maximum fold (Fold) increase” value [2] was “***** (a fold increase >1.65 is indicated by five stars (*****))”. It also gave a melting point of 190 to 192 °C.
For `CCc1nc(C)cn2nc(-c3cc(=O)n4cc(N5CCNCC5)ccc4n3)cc12` [Compound 546, 2-(4-ethyl-6-methylpyrazolo[1,5-a]pyrazin-2-yl)-7-(piperazin-1-yl)-4H-pyrido[1,2-a]pyrimidin-4-one], the EC (1.5-fold increase) [1] was under 0.1 µM, the “EC1.5x for Smn protein expression” value [2] was “**** (an EC1.5x≤0.3 μM is indicated by four stars (****))” and the “maximum fold (Fold) increase” value [2] was “***** (a fold increase >1.65 is indicated by five stars (*****))”. The melting point was 230 to 233 °C.
With `CCc1nc(C)cn2nc(-c3cc(=O)n4cc(N5CCN(C)CC5)ccc4n3)cc12` [Compound 547, 2-(4-ethyl-6-methylpyrazolo[1,5-a]pyrazin-2-yl)-7-(4-methylpiperazin-1-yl)-4H-pyrido[1,2-a]pyrimidin-4-one] the EC (1.5-fold increase) [1] was under 0.1 µM, the “EC1.5x for Smn protein expression” value [2] was “**** (an EC1.5x≤0.3 μM is indicated by four stars (****))” and the “maximum fold (Fold) increase” value [2] was “***** (a fold increase >1.65 is indicated by five stars (*****))”. The melting point was 250 to 252 °C.
For `CCc1nc(C)cn2nc(-c3cc(=O)n4cc(N5CCN(CC)CC5)ccc4n3)cc12` [Compound 548, 2-(4-ethyl-6-methylpyrazolo[1,5-a]pyrazin-2-yl)-7-(4-ethylpiperazin-1-yl)-4H-pyrido[1,2-a]pyrimidin-4-one], the EC (1.5-fold increase) [1] was under 0.1 µM, the “EC1.5x for Smn protein expression” value [2] was “**** (an EC1.5x≤0.3 μM is indicated by four stars (****))” and the “maximum fold (Fold) increase” value [2] was “***** (a fold increase >1.65 is indicated by five stars (*****))”. The melting point was 250 to 252 °C.
For `CCc1nc(C)cn2nc(-c3cc(=O)n4cc(N5CCN(CCO)CC5)ccc4n3)cc12` [Compound 549, 2-(4-ethyl-6-methylpyrazolo[1,5-a]pyrazin-2-yl)-7-[4-(2-hydroxyethyl)piperazin-1-yl]-4H-pyrido[1,2-a]pyrimidin-4-one], the EC (1.5-fold increase) [1] was under 0.1 µM, the “EC1.5x for Smn protein expression” value [2] was “**** (an EC1.5x≤0.3 μM is indicated by four stars (****))” and the “maximum fold (Fold) increase” value [2] was “***** (a fold increase >1.65 is indicated by five stars (*****))”. It also gave a melting point of 240 to 242 °C.
For `CCc1nc(C)cn2nc(-c3cc(=O)n4cc(N5CCC(N(C)C)CC5)ccc4n3)cc12` [Compound 550, 7-[4-(dimethylamino)piperidin-1-yl]-2-(4-ethyl-6-methylpyrazolo[1,5-a]pyrazin-2-yl)-4H-pyrido[1,2-a]pyrimidin-4-one], the EC (1.5-fold increase) [1] was under 0.1 µM, the “EC1.5x for Smn protein expression” value [2] was “**** (an EC1.5x≤0.3 μM is indicated by four stars (****))” and the “maximum fold (Fold) increase” value [2] was “***** (a fold increase >1.65 is indicated by five stars (*****))”. The melting point was 258 to 260 °C.
